According to patent publication US12077503B2, “Substituted cyclic amides and their use as herbicides” (FMC CORPORATION, priority 2015, dated 2024):
Like-named read-outs stand apart in the source and are kept apart here.

Assays:
Format in all cases: in vivo
[1] = tested on: ragweed (common ragweed, Ambrosia elatior); assay: Test A preemergence; conditions: Ambrosia artemisiifolia, pre-emergence, 240 h; for pest or weed control at 125 g/ha: 125 g ai/ha; for pest or weed control at 500 g/ha: 500 g ai/ha
Method in brief: (§1)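 Seeds sprayed preemergence with a directed soil spray, or plants at 2 to 10 cm height and one- to two-leaf stage sprayed postemergence, with test chemicals in a non-phytotoxic solvent mixture containing surfactant, in loam soil–sand blend. Injury rated visually against untreated controls after about 10 d in greenhouse, 0 (no effect) to 100 (complete control).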

[2] = tested on: ryegrass, Italian (Italian ryegrass, Lolium multiflorum); assay: Test A preemergence; conditions: Lolium multiflorum, pre-emergence, 240 h; for pest or weed control at 125 g/ha: 125 g ai/ha; for pest or weed control at 500 g/ha: 500 g ai/ha
Method in brief: as §1

[3] = tested on: Kochia (Kochia scoparia); assay: Test A preemergence; conditions: Bassia scoparia, pre-emergence, 240 h; for pest or weed control at 125 g/ha: 125 g ai/ha; for pest or weed control at 500 g/ha: 500 g ai/ha
Method in brief: as §1

[4] = tested on: barnyardgrass (Echinochloa crus-galli); assay: Test A preemergence; conditions: Echinochloa crus-galli, pre-emergence, 240 h; for pest or weed control at 125 g/ha: 125 g ai/ha; for pest or weed control at 500 g/ha: 500 g ai/ha
Method in brief: as §1

[5] = tested on: pigweed (Amaranthus retroflexus); assay: Test A preemergence; conditions: Amaranthus retroflexus, pre-emergence, 240 h; for pest or weed control at 125 g/ha: 125 g ai/ha; for pest or weed control at 500 g/ha: 500 g ai/ha
[6] = tested on: giant foxtail (Setaria faberii); assay: Test A preemergence; conditions: Setaria faberi, pre-emergence, 240 h; for pest or weed control at 125 g/ha: 125 g ai/ha; for pest or weed control at 500 g/ha: 500 g ai/ha
Method in brief: as §1

[7] = tested on: ragweed (common ragweed, Ambrosia elatior); assay: Test A postemergence; conditions: Ambrosia artemisiifolia, post-emergence, 240 h, postemergence; for pest or weed control at 125 g/ha: 125 g ai/ha
Method in brief: as §1

[8] = tested on: corn (Zea mays); assay: Test A postemergence; conditions: Zea mays, post-emergence, 240 h, postemergence; for plant injury at 125 g/ha: 125 g ai/ha, visual injury on 0 to 100 scale (0 no effect, 100 complete control)
Method in brief: as §1

[9] = tested on: ryegrass, Italian (Italian ryegrass, Lolium multiflorum); assay: Test A postemergence; conditions: Lolium multiflorum, post-emergence, 240 h, postemergence; for pest or weed control at 125 g/ha: 125 g ai/ha
Method in brief: as §1

[10] = tested on: pigweed (Amaranthus retroflexus); assay: Test A postemergence; conditions: Amaranthus retroflexus, post-emergence, 240 h, postemergence; for pest or weed control at 125 g/ha: 125 g ai/ha
Method in brief: as §1

[11] = tested on: blackgrass (Alopecurus myosuroides); assay: Test A postemergence; conditions: Alopecurus myosuroides, post-emergence, 240 h, postemergence; for pest or weed control at 125 g/ha: 125 g ai/ha, visual injury on 0 to 100 scale (0 no effect, 100 complete control); for pest or weed control at 500 g/ha: 500 g ai/ha
Method in brief: as §1

[12] = tested on: rice (Oryra sativa); assay: Test B flooded paddy test; conditions: Oryza sativa, 250 g ai/ha, Flood; 0 to 100 scale where 0 is no effect and 100 is complete control; read-out: Rice plant response rating
Method in brief: (§2)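 Flooding to 3 cm over soil accompanied treatment, which consisted of adding compound to the standing water around 2-leaf plants; depth was then maintained. Visual assessment versus controls followed at 13 to 15 d (scale 0–100, 0 meaning no effect).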

[13] = tested on: ducksalad (Heteranthera limosa); assay: Test B flooded paddy test; conditions: Heteranthera limosa, 250 g ai/ha, Flood; 0 to 100 scale where 0 is no effect and 100 is complete control; read-out: Ducksalad plant response rating
Method in brief: as §2

[14] = tested on: sedge, umbrella (small-flower umbrella sedge, Cyperus difformis); assay: Test B flooded paddy test; conditions: Cyperus difformis, 250 g ai/ha, Flood; 0 to 100 scale where 0 is no effect and 100 is complete control; read-out: Sedge, Umbrella plant response rating
Method in brief: as §2

[15] = tested on: barnyardgrass (Echinochloa crus-galli); assay: Test B flooded paddy test; conditions: Echinochloa crus-galli, 250 g ai/ha, Flood; 0 to 100 scale where 0 is no effect and 100 is complete control; read-out: Barnyardgrass plant response rating
Method in brief: as §2

[16] = approx. 10 d, read-out: Corn plant response rating
[17] = approx. 10 d, read-out: Blackgrass plant response rating

CN1C[C@H](c2ccc(C(F)(F)F)cc2)[C@@](F)(C(=O)Nc2cccc(F)c2F)C1=O (racemic) [Compound 1151]
0%: pest or weed control at 125 g/ha ([1]; preemergence, 0 to 100 scale where 0 is no effect and 100 is complete control, approx. 10 d, read-out: Ragweed plant response rating) | pest or weed control at 125 g/ha ([7]; visual injury vs untreated controls after approx. 10 d, 0 = no effect, 100 = complete control, read-out: Ragweed plant response rating (0 to 100 scale)) | pest or weed control at 250 g/ha [12] | pest or weed control at 250 g/ha [13] | pest or weed control at 250 g/ha [14] | pest or weed control at 250 g/ha [15]
70%: pest or weed control at 125 g/ha ([2]; preemergence, 0 to 100 scale where 0 is no effect and 100 is complete control, approx. 10 d, read-out: Ryegrass, Italian plant response rating) | pest or weed control at 500 g/ha ([2]; preemergence, 0 to 100 scale where 0 is no effect and 100 is complete control, read-out: Ryegrass, Italian plant response rating) | pest or weed control at 125 g/ha ([3]; preemergence, 0 to 100 scale where 0 is no effect and 100 is complete control, approx. 10 d, read-out: Kochia plant response rating)
50%: pest or weed control at 500 g/ha ([9]; 500 g ai/ha, 0 to 100 scale, 0 is no effect, 100 is complete control, read-out: Ryegrass, Italian plant response rating)
20%: pest or weed control at 125 g/ha ([10]; visual injury vs untreated controls after approx. 10 d, 0 = no effect, 100 = complete control, read-out: Pigweed plant response rating (0 to 100 scale))
80%: pest or weed control at 500 g/ha ([3]; preemergence, 0 to 100 scale where 0 is no effect and 100 is complete control, read-out: Kochia plant response rating) | pest or weed control at 125 g/ha ([5]; preemergence, 0 to 100 scale where 0 is no effect and 100 is complete control, approx. 10 d, read-out: Pigweed plant response rating) | plant injury at 500 g/ha ([8]; 500 g ai/ha, 0 to 100 scale, 0 is no effect, 100 is complete control, read-out: Corn plant response rating) | pest or weed control at 500 g/ha ([10]; 500 g ai/ha, 0 to 100 scale, 0 is no effect, 100 is complete control, read-out: Pigweed plant response rating)
100%: pest or weed control at 500 g/ha ([4]; preemergence, 0 to 100 scale where 0 is no effect and 100 is complete control, read-out: Barnyardgrass plant response rating) | pest or weed control at 500 g/ha ([5]; preemergence, 0 to 100 scale where 0 is no effect and 100 is complete control, read-out: Pigweed plant response rating) | pest or weed control at 125 g/ha ([6]; preemergence, 0 to 100 scale where 0 is no effect and 100 is complete control, approx. 10 d, read-out: Foxtail, Giant plant response rating) | pest or weed control at 500 g/ha ([6]; preemergence, 0 to 100 scale where 0 is no effect and 100 is complete control, read-out: Foxtail, Giant plant response rating)
90%: pest or weed control at 125 g/ha ([4]; preemergence, 0 to 100 scale where 0 is no effect and 100 is complete control, approx. 10 d, read-out: Barnyardgrass plant response rating)
60%: pest or weed control at 500 g/ha ([1]; preemergence, 0 to 100 scale where 0 is no effect and 100 is complete control, read-out: Ragweed plant response rating) | plant injury at 125 g/ha [8, 16] | pest or weed control at 500 g/ha ([11]; 0 to 100 scale, 0 is no effect, 100 is complete control, read-out: Blackgrass plant response rating)
30%: pest or weed control at 500 g/ha ([7]; 500 g ai/ha, 0 to 100 scale, 0 is no effect, 100 is complete control, read-out: Ragweed plant response rating) | pest or weed control at 125 g/ha ([9]; visual injury vs untreated controls after approx. 10 d, 0 = no effect, 100 = complete control, read-out: Ryegrass, Italian plant response rating (0 to 100 scale)) | pest or weed control at 125 g/ha [11, 17]

O=C1NCC(c2ccccc2OC(F)(F)C(F)F)C1C(=O)Nc1cccc(F)c1F (stereo not shown) [Compound 1054]
0%: pest or weed control at 125 g/ha ([1]; Preemergence, visual injury rating after approximately 10 d, read-out: Ragweed plant response rating (0 to 100 scale, 0 is no effect, 100 is complete control)) | pest or weed control at 500 g/ha ([1]; preemergence, visual injury rating about 10 d after treatment, 0 to 100 scale (0 no effect, 100 complete control), read-out: Ragweed plant response rating) | pest or weed control at 125 g/ha ([2]; Preemergence, visual injury rating after approximately 10 d, read-out: Ryegrass, Italian plant response rating (0 to 100 scale, 0 is no effect, 100 is complete control)) | pest or weed control at 500 g/ha ([2]; preemergence, visual injury rating about 10 d after treatment, 0 to 100 scale (0 no effect, 100 complete control), read-out: Ryegrass, Italian plant response rating) | pest or weed control at 125 g/ha ([3]; Preemergence, visual injury rating after approximately 10 d, read-out: Kochia plant response rating (0 to 100 scale, 0 is no effect, 100 is complete control)) | pest or weed control at 500 g/ha ([3]; preemergence, visual injury rating about 10 d after treatment, 0 to 100 scale (0 no effect, 100 complete control), read-out: Kochia plant response rating) | pest or weed control at 125 g/ha ([4]; Preemergence, visual injury rating after approximately 10 d, read-out: Barnyardgrass plant response rating (0 to 100 scale, 0 is no effect, 100 is complete control)) | pest or weed control at 500 g/ha ([4]; preemergence, visual injury rating about 10 d after treatment, 0 to 100 scale (0 no effect, 100 complete control), read-out: Barnyardgrass plant response rating) | pest or weed control at 125 g/ha ([5]; Preemergence, visual injury rating after approximately 10 d, read-out: Pigweed plant response rating (0 to 100 scale, 0 is no effect, 100 is complete control)) | pest or weed control at 500 g/ha ([5]; preemergence, visual injury rating about 10 d after treatment, 0 to 100 scale (0 no effect, 100 complete control), read-out: Pigweed plant response rating) | pest or weed control at 125 g/ha ([6]; Preemergence, visual injury rating after approximately 10 d, read-out: Foxtail, Giant plant response rating (0 to 100 scale, 0 is no effect, 100 is complete control)) | pest or weed control at 500 g/ha ([6]; preemergence, visual injury rating about 10 d after treatment, 0 to 100 scale (0 no effect, 100 complete control), read-out: Foxtail, Giant plant response rating) | pest or weed control at 125 g/ha ([7]; visual injury on 0 to 100 scale (0 no effect, 100 complete control), approx. 10 d, read-out: Ragweed plant response rating) | plant injury at 125 g/ha [8, 16] | Corn plant response rating (crop injury, 0 = no effect, 100 = complete kill) at 500 g/ha ([8]; 500 g ai/ha, visual injury, 0 to 100 scale (0 no effect, 100 complete control), approx. 10 d) | pest or weed control at 125 g/ha ([9]; visual injury on 0 to 100 scale (0 no effect, 100 complete control), approx. 10 d, read-out: Ryegrass, Italian plant response rating) | pest or weed control at 125 g/ha ([10]; visual injury on 0 to 100 scale (0 no effect, 100 complete control), approx. 10 d, read-out: Pigweed plant response rating) | pest or weed control at 125 g/ha [11, 17] | pest or weed control at 500 g/ha ([11]; visual injury, 0 to 100 scale (0 no effect, 100 complete control), approx. 10 d, read-out: Plant response rating, Blackgrass) | pest or weed control at 250 g/ha [12] | pest or weed control at 250 g/ha [13] | pest or weed control at 250 g/ha [14] | pest or weed control at 250 g/ha [15]
